The IC50 is the concentration that gives 50% inhibition.

Assay [1] concerns the target T1, CDK7 (Homo sapiens, UniProt P50613).
T1 construct: purchased Eurofilns (sic; Eurofins) 14-476 M
As to the kind of experiment: Inhibitory effect on the kinase activity of CDK7 in vitro (Caliper). It is filed as biochemical. As to conditions: 77 uM ATP, 0.2 ug/uL CTD3 peptide; read-out: CDK 7 IC50. Here is the method: (§1) The detection of the inhibitory effect of the compounds of the present disclosure on the kinase activity of CDK7/CDK9 in vitro was determined by the following method:
(§2) 1) The compound was accurately weighed and dissolved in DMSO (Sigma, D2650) to a concentration of 100 mM for later use. The compound was diluted to 5-fold of a desired highest concentration, and diluted 4-fold into 6 concentration gradients, allowing the final concentration of the compound in the reaction system to be CDK7: 3000, 750, 188, 47, 12, 3 nM; CDK9: 100, 25, 6.25, 1.56, 0.39, 0.098 nM. 5 ul was taken to a 384-well plate (Corning, 4512).
(§3) 2) Kinase reaction: 10uL protein kinase (CDK7: Eurofilns,14-476 M; CDK9: Millipore,14-685 M) solution was added to the 384-well plate (Corning, 4512) containing the compound, and allowed to stand at room temperature for 10 min; a mixed solution of ATP(Sigma, A7699) and substrate polypeptide (CDK7: 77 uM ATP&0.2ug/uL CTD3 peptide (GL Biochem,SY356885); CDK9: 10 uM ATP&0.2 ug/uL CTD3 peptide (GL Biochem,SY356885)) was added, and allowed to stand at 28° C. for a short time; and then a stop solution was added to terminate the reaction at 25 uL per well.
(§4) 3) Detection: Data was collected by Caliper.
(§5) 4) Calculation: The IC50 value was calculated by Graphpad prism 5.0 software according to the concentration of the compound and the corresponding signal value.

Assay [2] has as its system Mv4-11 cells. The assay can be described thus: Inhibition of the proliferation of Mv4-11 cells (CCK8). It is filed as cell-based. Here is the method:
The inhibition effect of the compounds of the present disclosure on the proliferation of Mv4-11 cells (ATCC:CRL-9591™) in vitro was determined by the following method:
1) Cell inoculation: Mv4-11 cells with good growing state in logarithmic growth phase were inoculated into a 96-well plate at 20000 cells per well and 50 uL, and cultured at 37° C. and under 5% CO2 condition for 2-4 h.
2) Administration: The compound was diluted with 1640 medium containing 10% FBS and 1% PS: 0.4 uL of the compound with an initial concentration of 1 mM was placed in a dilution plate, each added with 199.6 uL of the above culture medium, and gradiently diluted 4-fold, so that the final concentration in the added cell was 1000, 250, 62.5, 15.625, 3.91, 0.98, 0.24, 0.06 nM. 50 µL of the medium containing the compound was sequentially added, and it was placed in a 37° C., 5% CO2 cell incubator for 48 hours.
3) Detection: 10uL CCK8 (Dojindo, CK 04) solution was added to each well, incubated in 37° C. 5% CO2 cell incubator for 2 hours, and then the OD450 value was read by Synegry H1(BioTek) multimode microplate reader.
4) Calculation: The IC50 value was calculated using Graphpad prism 5.0 software according to the concentration of the compound and the corresponding signal value.

Assay [3] concerns the target T2, CDK9 (Homo sapiens, UniProt P50750).
T2 construct: purchased Millipore 14-685 M
As to the kind of experiment: Inhibitory effect on the kinase activity of CDK9 in vitro (Caliper). It counts as biochemical. As to conditions: 10 uM ATP, 0.2 ug/uL CTD3 peptide; read-out: CDK 9 IC50. Here is the method:
as §1, §2, §3, §4, §5

T2 sequence (P50750 whole entry): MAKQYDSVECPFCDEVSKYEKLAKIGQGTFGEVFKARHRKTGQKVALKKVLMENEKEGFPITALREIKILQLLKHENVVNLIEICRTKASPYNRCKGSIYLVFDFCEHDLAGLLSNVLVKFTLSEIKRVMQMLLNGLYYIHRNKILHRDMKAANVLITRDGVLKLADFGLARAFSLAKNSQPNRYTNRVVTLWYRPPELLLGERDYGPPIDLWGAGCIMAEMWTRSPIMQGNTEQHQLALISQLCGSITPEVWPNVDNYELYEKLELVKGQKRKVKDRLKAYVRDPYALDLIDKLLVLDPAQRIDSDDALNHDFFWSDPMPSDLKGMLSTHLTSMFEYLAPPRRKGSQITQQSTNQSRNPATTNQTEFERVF
T2 sequence (O60563 whole entry partner): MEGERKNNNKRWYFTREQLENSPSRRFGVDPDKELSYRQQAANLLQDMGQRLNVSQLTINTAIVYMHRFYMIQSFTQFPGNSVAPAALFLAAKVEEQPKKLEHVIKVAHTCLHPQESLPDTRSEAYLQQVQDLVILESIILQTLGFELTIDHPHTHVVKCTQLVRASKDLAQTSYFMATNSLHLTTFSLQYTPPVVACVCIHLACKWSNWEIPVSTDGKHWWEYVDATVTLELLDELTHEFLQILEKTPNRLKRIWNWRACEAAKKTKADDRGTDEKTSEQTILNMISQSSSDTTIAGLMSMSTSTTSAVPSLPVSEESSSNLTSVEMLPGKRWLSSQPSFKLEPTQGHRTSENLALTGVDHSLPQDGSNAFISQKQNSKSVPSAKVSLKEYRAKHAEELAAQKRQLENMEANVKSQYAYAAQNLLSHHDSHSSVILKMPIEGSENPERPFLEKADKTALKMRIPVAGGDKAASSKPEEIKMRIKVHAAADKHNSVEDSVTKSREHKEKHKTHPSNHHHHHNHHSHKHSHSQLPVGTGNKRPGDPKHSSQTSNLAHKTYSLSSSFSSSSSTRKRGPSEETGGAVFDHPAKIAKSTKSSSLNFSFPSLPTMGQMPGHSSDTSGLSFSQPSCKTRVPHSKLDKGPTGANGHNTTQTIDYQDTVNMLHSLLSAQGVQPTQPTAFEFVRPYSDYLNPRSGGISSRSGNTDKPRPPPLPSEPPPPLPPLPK
T1 sequence (P50613 whole entry): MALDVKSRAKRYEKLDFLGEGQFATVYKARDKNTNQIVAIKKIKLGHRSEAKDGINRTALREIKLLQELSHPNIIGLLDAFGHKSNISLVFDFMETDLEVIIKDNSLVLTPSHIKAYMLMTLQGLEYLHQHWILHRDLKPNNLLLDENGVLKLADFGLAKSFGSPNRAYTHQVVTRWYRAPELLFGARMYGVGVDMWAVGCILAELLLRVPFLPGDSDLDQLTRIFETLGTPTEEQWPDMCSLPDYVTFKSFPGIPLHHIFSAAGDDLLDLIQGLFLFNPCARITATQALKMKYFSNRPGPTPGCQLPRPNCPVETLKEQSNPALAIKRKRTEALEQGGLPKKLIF
T1 sequence (P51946 whole entry partner): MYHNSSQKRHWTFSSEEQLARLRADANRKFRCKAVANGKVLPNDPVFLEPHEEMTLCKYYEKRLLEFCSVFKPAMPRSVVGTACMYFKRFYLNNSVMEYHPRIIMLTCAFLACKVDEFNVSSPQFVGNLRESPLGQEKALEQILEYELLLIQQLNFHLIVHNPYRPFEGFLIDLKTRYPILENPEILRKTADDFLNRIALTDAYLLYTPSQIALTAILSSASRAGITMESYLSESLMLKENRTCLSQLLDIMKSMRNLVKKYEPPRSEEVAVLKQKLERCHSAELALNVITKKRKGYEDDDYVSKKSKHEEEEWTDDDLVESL
T1 sequence (P51948 whole entry partner): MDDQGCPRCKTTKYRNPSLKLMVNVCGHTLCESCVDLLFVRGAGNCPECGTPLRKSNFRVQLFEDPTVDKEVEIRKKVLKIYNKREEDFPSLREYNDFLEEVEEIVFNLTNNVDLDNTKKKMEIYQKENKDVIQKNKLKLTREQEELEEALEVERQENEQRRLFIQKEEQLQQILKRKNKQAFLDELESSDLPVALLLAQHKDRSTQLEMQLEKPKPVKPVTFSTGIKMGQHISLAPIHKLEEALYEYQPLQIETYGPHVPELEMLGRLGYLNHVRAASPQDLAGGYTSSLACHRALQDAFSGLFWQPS

As to `CC(=O)N[C@@H]1CCC[C@H](C(=O)Nc2cc(-c3cnn4c3CC(C)(C)C4)c(Cl)cn2)C1` [AZD4573, reference compound], the IC50 was 109 nM in assay [1] and 4.2 nM in assay [2] (Homo sapiens, MV4-11, 48 h).

Regarding `CC1(C)Cc2c(-c3cc(NC(=O)Cc4cccc(C(N)=O)c4)ncc3Cl)cnn2C1` [Compound 1, 3-(2-((5-chloro-4-(5,5-dimethyl-5,6-dihydro-4H-pyrrolo[1,2-b]pyrazol-3-yl)pyridin-2-yl)amino)-2-oxoethyl)benzamide], the IC50 in assay [3] was determined as 3 nM; in assay [1] it was 96 nM; in assay [2] (Homo sapiens, MV4-11, 48 h), 7.4 nM.

`C[C@H](C(=O)Nc1cc(-c2cnn3c2CC(C)(C)C3)c(Cl)cn1)c1cccc(C(N)=O)c1` [Compound 2-1, (S)-3-(1-((5-chloro-4-(5,5-dimethyl-5,6-di hydro-4H-pyrrolo[1,2-b]pyrazol-3-yl)pyridin-2-yl)amino)-1-oxopropan-2-yl)benzamide (assumed)] showed a half-maximal inhibitory concentration (IC50) in assay [2] (Homo sapiens, MV4-11, 48 h) of over 1000 nM.

`CC1(C)Cc2c(-c3cc(NC(=O)Cc4cccc(C#N)c4)ncc3Cl)cnn2C1` [Compound 4, N-(5-chloro-4-(5,5-dimethyl-5,6-dihydro-4 H-pyrrolo[1,2-b]pyrazol-3-yl)pyridin-2-yl) -2-(3-cyanophenyl)acetamide] gave an IC50 in assay [2] (Homo sapiens, MV4-11, 48 h) of 10.7 nM.

On to `CC1(C)Cc2c(-c3cc(NC(=O)Cc4ccncc4)ncc3Cl)cnn2C1` [Compound 5, N-(5-chloro-4-(5,5-dimethyl-5,6-dihydro-4 H-pyrrolo[1,2-b]pyrazol-3-yl)pyridin-2-yl) -2-(pyridin-4-yl)acetamide], for which the IC50 in assay [2] (Homo sapiens, MV4-11, 48 h) is 26 nM.

For the molecule `CC1(C)Cc2c(-c3cc(NC(=O)Cc4cccnc4)ncc3Cl)cnn2C1` [Compound 6, N-(5-chloro-4-(5,5-dimethyl-5,6-dihydro-4 H-pyrrolo[1,2-b]pyrazol-3-yl)pyridin-2-yl) -2-(pyridin-3-yl)acetamide], the IC50 is 3.1 nM in assay [3]; 197 nM in assay [1]; 9.9 nM in assay [2] (Homo sapiens, MV4-11, 48 h).

Regarding `CC1(C)Cc2c(-c3cc(NC(=O)Cc4cccc(C#N)n4)ncc3Cl)cnn2C1` [Compound 7, N-(5-chloro-4-(5,5-dimethyl-5,6-dihydro-4 H-pyrrolo[1,2-b]pyrazol-3-yl)pyridin-2-yl) -2-(6-cyanopyridin-2-yl)acetamide], the IC50 in assay [3] is 1.7 nM; in assay [1], 118 nM; in assay [2] (Homo sapiens, MV4-11, 48 h), 8.2 nM.

Turning to `CC(=O)Nc1cccc(CC(=O)Nc2cc(-c3cnn4c3CC(C)(C)C4)c(Cl)cn2)c1` [Compound 8, 2-(3-acetylaminophenyl)-N-(5-chloro-4-(5,5-dimethyl-5,6-dihydro-4H-pyrrolo[1,2-b]pyrazol-3-yl)pyridin-2-yl)acetamide], the IC50 in assay [3] turned out to be 3.4 nM; in assay [1] it was 116 nM; in assay [2] (Homo sapiens, MV4-11, 48 h), 19.6 nM.

For `CC1(C)Cc2c(-c3cc(NC(=O)Cc4cccc(NC(=O)CC#N)c4)ncc3Cl)cnn2C1` [Compound 9, N-(5-chloro-4-(5,5-dimethyl-5,6-dihydro-4 H-pyrrolo[1,2-b]pyrazol-3-yl)pyridin-2-yl) -2-(3-(2-cyanoacetylamino)phenyl)acetamide], the IC50 in assay [2] (Homo sapiens, MV4-11, 48 h) was 13 nM.

As for `C[C@H](C(=O)Nc1cc(-c2cnn3c2CC(C)(C)C3)c(Cl)cn1)c1cccnc1` [Compound 11-1, (S)-N-(5-chloro-4-(5,5-dimethyl-5,6-dihydro-4H-pyrrolo[1,2-b]pyrazol-3-yl)pyridin-2-yl)-2-(pyridin-3-yl)propionamide (assumed)], the IC50 in assay [2] (Homo sapiens, MV4-11, 48 h) was determined as 893 nM.

Turning to `COc1ccc(CC(=O)Nc2cc(-c3cnn4c3CC(C)(C)C4)c(Cl)cn2)cn1` [Compound 12, N-(5-chloro-4-(5,5-dimethyl-5,6-dihydro-4 H-pyrrolo[1,2-b]pyrazol-3-yl)pyridin-2-yl) -2-(6-methoxypyridin-3-yl)acetamide], the IC50 in assay [3] came out at 5.2 nM; in assay [2] (Homo sapiens, MV4-11, 48 h) it was 12.2 nM.

With `CC(=O)Nc1cccc([C@H](C)C(=O)Nc2cc(-c3cnn4c3CC(C)(C)C4)c(Cl)cn2)c1` [Compound 14-1, (S)-2-(3-acetylacetylaminophenyl)-N-(5-chloro-4-(5,5-dimethyl-5,6-dihydro-4H-pyrrolo [1,2-b]pyrazol-3-yl)pyridin-2-yl)propionamide (assumed)], the IC50 was 2.3 nM in assay [3] and 10.1 nM in assay [2] (Homo sapiens, MV4-11, 48 h).

`CC(=O)Nc1cccc([C@@H](C)C(=O)Nc2cc(-c3cnn4c3CC(C)(C)C4)c(Cl)cn2)c1` [Compound 14-2, (R)-2-(3-acetylaminophenyl)-N-(5-chloro-4-(5,5-dimethyl-5,6-dihydro-4H-pyrrolo[1,2-b]pyrazol-3-yl)pyridin-2-yl)propionamide (assumed)] came in with an IC50 in assay [2] (Homo sapiens, MV4-11, 48 h) of 136 nM.

As for `C[C@H](C(=O)Nc1cc(-c2cnn3c2CC(C)(C)C3)c(Cl)cn1)c1ccnc(C#N)c1` [Compound 15-1, (S)-N-(5-chloro-4-(5,5-dimethyl-5,6-dihydro-4H-pyrrolo[1,2-b]pyrazol-3-yl)pyridin-2-yl)-2-(2-cyanopyridin-4-yl)propionamide (assumed)], the IC50 in assay [3] was 5.9 nM; in assay [2] (Homo sapiens, MV4-11, 48 h), 11.2 nM.

With `C[C@@H](C(=O)Nc1cc(-c2cnn3c2CC(C)(C)C3)c(Cl)cn1)c1ccnc(C#N)c1` [Compound 15-2, (R)-N-(5-chloro-4-(5,5-dimethyl-5,6-dihydro-4H-pyrrolo[1,2-b]pyrazol-3-yl)pyridin-2-yl)-2-(2-cyanopyridin-4-yl)propionamide (assumed)], half-maximal inhibition in assay [2] (Homo sapiens, MV4-11, 48 h) (IC50) was put at 161 nM.

With `COc1cc([C@H](C)C(=O)Nc2cc(-c3cnn4c3CC(C)(C)C4)c(Cl)cn2)ccn1` [Compound 16-1, (S)-N-(5-chloro-4-(5,5-dimethyl-5,6-dihydro-4H-pyrrolo[1,2-b]pyrazol-3-yl)pyridin-2-yl)-2-(2-methoxypyridin-4-yl)propionamide (assumed)], the IC50 in assay [3] turned out to be 3.4 nM; in assay [2] (Homo sapiens, MV4-11, 48 h) it was 6.4 nM.

For `COc1cc([C@@H](C)C(=O)Nc2cc(-c3cnn4c3CC(C)(C)C4)c(Cl)cn2)ccn1` [Compound 16-2, (R)-N-(5-chloro-4-(5,5-dimethyl-5,6-dihydro-4H-pyrrolo[1,2-b]pyrazol-3-yl)pyridin-2-yl)-2-(2-methoxypyridin-4-yl)propionamide (assumed)], in assay [2] (Homo sapiens, MV4-11, 48 h), half-maximal inhibition (IC50) was put at 469 nM.

With `C[C@@H](C(=O)Nc1cc(-c2cnn3c2CC(C)(C)C3)c(Cl)cn1)c1ccnc(C(C)(C)O)c1` [Compound 18-2, (R)-N-(5-chloro-4-(5,5-dimethyl-5,6-dihydro-4H-pyrrolo[1,2-b]pyrazol-3-yl)pyridin-2-yl)-2-(2-(2-hydroxypropan-2-yl)pyridin-4-yl)propionamide (assumed)], the IC50 in assay [3] came to 3 nM; in assay [1] it was 74 nM; in assay [2] (Homo sapiens, MV4-11, 48 h), 25 nM.

As to `C[C@H](C(=O)Nc1cc(-c2cnn3c2CC(C)(C)C3)c(Cl)cn1)c1ccc(-c2cccnc2)nc1` [Compound 19-1, (S)-2-([2,3′-bipyridin]-5-yl)-N-(5-chloro-4-(5,5-dimethyl-5,6-dihydro-4H-pyrrolo[1,2-b]pyrazol-3-yl)pyridin-2-yl)propionamide (assumed)], the IC50 in assay [2] (48 hours) turned out to be 13.9 nM.

As to `C=CC(=O)NCc1ccc(-c2ccc([C@H](C)C(=O)Nc3cc(-c4cnn5c4CC(C)(C)C5)c(Cl)cn3)cn2)cn1` [Compound 20-1, (S)-N-((5-(1-((5-chloro-4-(5,5-dimethyl-5,6-dihydro-4H-pyrrolo[1,2-b]pyrazol-3-yl)pyridin-2-yl)amino)-1-oxopropan-2-yl)-[2,3′ -bipyridin]-6′-yl)methyl)acrylamide (assumed)], the IC50 in assay [3] amounted to 8.4 nM; in assay [1], 25.1 nM; in assay [2] (Homo sapiens, MV4-11, 48 h) it was 3.7 nM.

For `C=CC(=O)NCc1ccc(-c2ccc([C@@H](C)C(=O)Nc3cc(-c4cnn5c4CC(C)(C)C5)c(Cl)cn3)cn2)cn1` [Compound 20-2, (R)-N-((5-(1-((5-chloro-4-(5,5-dimethyl-5,6-dihydro-4H-pyrrolo[1,2-b]pyrazol-3-yl)pyridin-2-yl)amino)-1-oxopropan-2-yl)-[2,3′ -bipyridin]-6′-yl)methyl)acrylamide (assumed)], 850 nM corresponded to half-maximal inhibition in assay [2] (Homo sapiens, MV4-11, 48 h) (IC50).

These data come from patent US20230219961A1, “Pyridine acetamide derivative serving as CDK inhibitor, and preparation method therefor and use thereof” (Suzhou AlphaMa Biotechnology Co., Ltd., priority 2020, published 2023).
